The values below come from patent US20230295197A1, “STAT5 and STAT6 Degraders and Uses Thereof” (REGENTS OF THE UNIVERSITY OF MICHICAN, priority 2022, published 2023).

For orientation: DC50 means the concentration giving 50% degradation.

In the assay the test system is STAT5. Put plainly: Immunoblotting (Western blot) analysis of STAT5 degradation efficiency of degraders in treated cells. The class given is cell-based. The method, then: Evaluation of the degradation efficiency of degraders may be accomplished by immunoblotting analysis. The representative general protocol is the following:
Cells are maintained in the appropriate culture medium with 10% FBS at 37° C. and an atmosphere of 5% CO2. Cell lines are used within three months of thawing fresh vials. Cells are lysed 1× Cell Lysis Buffer (Cell Signaling Technology, #9803), resolved by SDS-PAGE NuPAGE gel (Thermo Fisher Scientific), and transferred to a PVDF membrane (Millipore). Membranes are blocked using Odyssey TBS Blocker Buffer (LI-COR). IRDye 680RD and 800CW Dye-labeled secondary antibodies (LI-COR) are used. The washed membranes are scanned using Odyssey CLx imager (LI-COR). The intensity of Western blot signaling is quantitated using the Odyssey software. Primary antibodies used are: STAT5 Rabbit mAb (Cell Signaling Technology, #94205), STAT6 Rabbit mAb (Cell Signaling Technology, #5397) and GAPDH mouse monoclonal antibody (Santa Cruz Biotechnology, sc-47724).
To evaluate the degradation efficiency of degraders, immunoblotting analysis was performed. The general protocol is the following.
About 1 million cells for each data point were treated with compounds at indicated concentrations and durations. Untreated and treated cells in cell culture medium were transferred into tubes, followed by centrifugation at 3,000 rpm and 4° C. for 6 min Supernatants were removed from tubes and radioimmunoprecipitation assay (RIPA) lysis buffer supplemented with 1% protease inhibitor cocktail (Fisher Scientific cat. PI87786) and phosphatase inhibitor (Roche cat. 04906837001) were added to tubes containing the remaining cell pellets. The tubes were then left on ice for 30 min and placed in a −80° C. freezer. Subsequently they were thawed in 37° C. water, then centrifuged at 14,000 rpm for 15 min and the cell lysates transferred to new tubes. The concentration of total proteins in each tube was calculated using the Pierce BCA protein Assay kit (cat. 23225). Based on the calculated protein concentration, cell lysates containing approximately the same amount of proteins were transferred to new tubes, then distilled water and 4× Protein Sample Loading Buffer for Western Blots (LI-COR cat. 928-40004) supplemented with 20% of mercaptoethanol (Sigma Aldrich cat. M6250) were added on ice. The cell lysates were then reduced and denatured at 95° C. for 5 min. From the tubes containing cell lysates an equal amount of protein samples (20-40 μg) was loaded into precast 8%, 10%, 4%-12%, or 4%-20% Tris-glycine gels (Novex) filled with Tris-glycine SDS running buffer. After the proteins were resolved, they were transferred onto Immobile-FL PVDF Membrane (Millipore Sigma cat. IPFL00010), using Mini Trans-Blot Electrophoretic Transfer Cell (Bio-Rad 1703930). The membranes were blocked with Intercept Blocking Buffer (LI-COR cat. 927-70001) in LI-COR Western Blot boxes for 1 h at rt. The membranes were washed with 1× Tris-buffered saline-Tween-20 (TBST, 1× solution was made from 20×TBST solution, ThermoFisher Scientific cat. 28360) for 5 min 4 times. The membranes were incubated overnight at 4° C. in Intercept Blocking Buffer supplemented with primary antibodies (normally antibody:buffer 1:1000) and Tween-20. The membranes were washed with TBST for 5 min 4 times and were incubated with Intercept Blocking Buffer supplemented with IRDye 800CE Secondary Antibodies, IRDye 680RD Secondary Antibodies (LI-COR biosciences), Tween-20, and 10% SDS solution, for 1 h at rt. The membranes were then washed with TBST for 5 min 4 times and rinsed with deionized water before drying and scanning with Odyssey Dlx Amazing System (LI-COR). The immunoblots were finally quantified by the software.
Background: In western blotting, separated proteins are transferred to a membrane and probed.

[1] abbreviates: MOLM-16 cells, numeric bound, read-out: DC50 S5 MOLM-16.
The mark [2] stands for this setting: SKNO1 cells, read-out: DC50 S5 SKNO1.

Read-outs that look alike come from different tables or passages of the source.

Take `CC(C)(C)[C@H](NC(=O)c1cc2cc(C(F)(F)P(=O)(O)O)ccc2s1)C(=O)N1C[C@@H](OCc2ccccc2)C[C@H]1C(=O)N(CCC(=O)NCCC#Cc1cccc2c1CN(C1CCC(=O)NC1=O)C2=O)c1ccc(Br)cc1` (stereo partly drawn) [Compound 622, ((2-(((2S)-1-((2S,4S)-4-(benzyloxy)-2-((4-bromophenyl)(3-((4-(2-(2,6-dioxopiperidin-3-yl)-1-oxoisoindolin-4-yl)but-3-yn-1-yl)amino)-3-oxopropyl)carbamoyl)pyrrolidin-1-yl)-3,3-dimethyl-1-oxobutan-2-yl)carbamoyl)benzo[b]thiophen-5-yl)difluoromethyl)phosphonic acid]: under setting [1], the DC50 is over 300 nM. On to `CC(C)(C)[C@H](NC(=O)c1cc2cc(C(F)(F)P(=O)(O)O)ccc2s1)C(=O)N1CCC[C@H]1C(=O)N(CCC(=O)N1CCC(Nc2cccc3c2CN(C2CCC(=O)NC2=O)C3=O)CC1)c1ccc(Br)cc1` (stereo partly drawn) [Compound 615, ((2-(((2S)-1-((2S)-2-((4-bromophenyl)(3-(4-((2-(2,6-dioxopiperidin-3-yl)-1-oxoisoindolin-4-yl)amino)piperidin-1-yl)-3-oxopropyl)carbamoyl)pyrrolidin-1-yl)-3,3-dimethyl-1-oxobutan-2-yl)carbamoyl)benzo[b]thiophen-5-yl)difluoromethyl)phosphonic acid], for which the DC50 reads like this: (KU-812 cells, read-out: DC50 S5 KU-812) over 10000 nM; under setting [1], over 300 nM.

With `CC(C)(C)[C@H](NC(=O)c1cc2cc(C(F)(F)P(=O)(O)O)ccc2s1)C(=O)N1CCC[C@H]1C(=O)N(CC(=O)NCCCCC#Cc1cccc2c1CN(C1CCC(=O)NC1=O)C2=O)c1ccc(F)cc1` (stereo partly drawn) [Compound 640, ((2-(((2S)-1-((2S)-2-((2-((6-(2-(2,6-dioxopiperidin-3-yl)-1-oxoisoindolin-4-yl)hex-5-yn-1-yl)amino)-2-oxoethyl)(4-fluorophenyl)carbamoyl)pyrrolidin-1-yl)-3,3-dimethyl-1-oxobutan-2-yl)carbamoyl)benzo[b]thiophen-5-yl)difluoromethyl)phosphonic acid], under setting [1], the DC50 is over 300 nM. On the same count and under the same terms, for `CCN1CC[C@H]2CC[C@@H](C(=O)N(CCC(=O)NCCC#Cc3cccc4c3CN(C3CCC(=O)NC3=O)C4=O)c3ccc(Br)cc3)N2C(=O)[C@@H](NC(=O)c2cc3cc(C(F)(F)P(=O)(O)O)ccc3s2)C1` (stereo partly drawn) [Compound 626, ((2-(((5S,8S,10aR)-8-((4-bromophenyl)(3-((4-(2-(2,6-dioxopiperidin-3-yl)-1-oxoisoindolin-4-yl)but-3-yn-1-yl)amino)-3-oxopropyl)carbamoyl)-3-ethyl-6-oxodecahydropyrrolo[1,2-a][1,5]diazocin-5-yl)carbamoyl)benzo[b]thiophen-5-yl)difluoromethyl)phosphonic acid] the value was over 300 nM; for `CCN1CC[C@H]2CC[C@@H](C(=O)N(CCC(=O)NCCCCC#Cc3cccc4c3CN(C3CCC(=O)NC3=O)C4=O)c3ccc(Br)cc3)N2C(=O)[C@@H](NC(=O)c2cc3cc(C(F)(F)P(=O)(O)O)ccc3s2)C1` (stereo partly drawn) [Compound 628, ((2-(((5S,8S,10aR)-8-((4-bromophenyl)(3-((6-(2-(2,6-dioxopiperidin-3-yl)-1-oxoisoindolin-4-yl)hex-5-yn-1-yl)amino)-3-oxopropyl)carbamoyl)-3-ethyl-6-oxodecahydropyrrolo[1,2-a][1,5]diazocin-5-yl)carbamoyl)benzo[b]thiophen-5-yl)difluoromethyl)phosphonic acid], over 300 nM.

Take `CC(C)(C)[C@H](NC(=O)c1cc2cc(C(F)(F)P(=O)(O)O)ccc2s1)C(=O)N1CCC[C@H]1C(=O)N(CCC(=O)NCCCC#Cc1cccc2c1CN(C1CCC(=O)NC1=O)C2=O)c1ccc(C(F)(F)F)cc1` (stereo partly drawn) [Compound 644, ((2-(((2S)-1-((2S)-2-((3-((5-(2-(2,6-dioxopiperidin-3-yl)-1-oxoisoindolin-4-yl)pent-4-yn-1-yl)amino)-3-oxopropyl)(4-(trifluoromethyl)phenyl)carbamoyl)pyrrolidin-1-yl)-3,3-dimethyl-1-oxobutan-2-yl)carbamoyl)benzo[b]thiophen-5-yl)difluoromethyl)phosphonic acid]: the DC50 is over 300 nM under setting [1] and 1000 to 10000 nM under setting [2]. Consider `CC(C)(C)[C@H](NC(=O)c1cc2cc(C(F)(F)P(=O)(O)O)ccc2s1)C(=O)N1C[C@H](OCc2ccccc2)C[C@H]1C(=O)N(CCC(=O)NCC#Cc1cccc2c1CN(C1CCC(=O)NC1=O)C2=O)c1ccc(Br)cc1` (stereo partly drawn) [Compound 616, ((2-(((2S)-1-((2S,4R)-4-(benzyloxy)-2-((4-bromophenyl)(3-((3-(2-(2,6-dioxopiperidin-3-yl)-1-oxoisoindolin-4-yl)prop-2-yn-1-yl)amino)-3-oxopropyl)carbamoyl)pyrrolidin-1-yl)-3,3-dimethyl-1-oxobutan-2-yl)carbamoyl)benzo[b]thiophen-5-yl)difluoromethyl)phosphonic acid], for which the DC50 under setting [1] was over 300 nM. Still for that read-out and setting: for `CCN1CC[C@H]2CC[C@@H](C(=O)N(CCC(=O)N3CCC(Nc4cccc5c4CN(C4CCC(=O)NC4=O)C5=O)CC3)c3ccc(Br)cc3)N2C(=O)[C@@H](NC(=O)c2cc3cc(C(F)(F)P(=O)(O)O)ccc3s2)C1` (stereo partly drawn) [Compound 631, ((2-(((5S,8S,10aR)-8-((4-bromophenyl)(3-(4-((2-(2,6-dioxopiperidin-3-yl)-1-oxoisoindolin-4-yl)amino)piperidin-1-yl)-3-oxopropyl)carbamoyl)-3-ethyl-6-oxodecahydropyrrolo[1,2-a][1,5]diazocin-5-yl)carbamoyl)benzo[b]thiophen-5-yl)difluoromethyl)phosphonic acid] the value was over 300 nM. For `CC(C)(C)[C@H](NC(=O)c1cc2cc(C(F)(F)P(=O)(O)O)ccc2s1)C(=O)N1CCC[C@H]1C(=O)N(CCC(=O)NCCCC#Cc1cccc2c1CN(C1CCC(=O)NC1=O)C2=O)c1ccc(C2CCOCC2)cc1` (stereo partly drawn) [Compound 651, ((2-(((2S)-1-((2S)-2-((3-((5-(2-(2,6-dioxopiperidin-3-yl)-1-oxoisoindolin-4-yl)pent-4-yn-1-yl)amino)-3-oxopropyl)(4-(tetrahydro-2H-pyran-4-yl)phenyl)carbamoyl)pyrrolidin-1-yl)-3,3-dimethyl-1-oxobutan-2-yl)carbamoyl)benzo[b]thiophen-5-yl)difluoromethyl)phosphonic acid], the DC50 is, setting by setting: under setting [1], over 300 nM; under setting [2], over 10000 nM.

For `CC(C)(C)[C@H](NC(=O)c1cc2cc(C(F)(F)P(=O)(O)O)ccc2s1)C(=O)N1C[C@H](OCc2ccc(C#Cc3cccc4c3CN(C3CCC(=O)NC3=O)C4=O)cc2)C[C@H]1C(=O)Nc1ncc(-c2ccccc2)s1` (stereo partly drawn) [Compound 632, ((2-(((2S)-1-((2S,4R)-4-((4-((2-(2,6-dioxopiperidin-3-yl)-1-oxoisoindolin-4-yl)ethynyl)benzyl)oxy)-2-((5-phenylthiazol-2-yl)carbamoyl)pyrrolidin-1-yl)-3,3-dimethyl-1-oxobutan-2-yl)carbamoyl)benzo[b]thiophen-5-yl)difluoromethyl)phosphonic acid], the DC50 under setting [1] was over 300 nM. Consider `CC(C)(C)[C@H](NC(=O)c1cc2cc(C(F)(F)P(=O)(O)O)ccc2s1)C(=O)N1CCC[C@H]1C(=O)N(CC(=O)NCCCCC#Cc1cccc2c1CN(C1CCC(=O)NC1=O)C2=O)c1ccc(Cl)cc1` (stereo partly drawn) [Compound 641, ((2-(((2S)-1-((2S)-2-((4-chlorophenyl)(2-((6-(2-(2,6-dioxopiperidin-3-yl)-1-oxoisoindolin-4-yl)hex-5-yn-1-yl)amino)-2-oxoethyl)carbamoyl)pyrrolidin-1-yl)-3,3-dimethyl-1-oxobutan-2-yl)carbamoyl)benzo[b]thiophen-5-yl)difluoromethyl)phosphonic acid], for which the DC50 under setting [1] is over 300 nM and the DC50 under setting [2] was over 10000 nM.
